53 molecules from US20260285869A1, “COMPOUNDS, COMPOSITIONS AND METHODS THEREOF” (HEPAITECH (BEIJING) BIOPHARMA TECHNOLOGY CO., LTD., priority 2023, published 2026) can be followed below.

Bounds are passed on as bounds.

This experiment deals with T1, human MRGPRX4 (Homo sapiens, UniProt Q96LA9).
T1 construct: expressed in transfected cells
Nature of the experiment: MRGPRX4 antagonist calcium assay (FLIPR, Fluo-8) in HEK293T cells stably expressing human MRGPRX4. The following applies: antagonist mode against 0.2 μM deoxycholic acid-3-phosphoric acid; for inhibition at 2 µM / inhibition at 0.5 µM: HEK-293T, HEK293T cells expressing human MRGPRX4; for inhibition at 2 µM: compound at 2 μM; for IC50: top conc. 30 μM, ten 3-fold serial dilutions, class symbols; for inhibition at 0.5 µM: compound at 500 nM. The class given is cell-based. How it is done:
HEK293T cells stably expressing human MRGPRX4 were cultured in DMEM medium supplements with 10% FBS, 100 U/mL penicillin-streptomycin, 20 mM HEPES and 1 μg/mL puromycin at 37° C. with 5% (v/v) CO2. One day before test, the cells were detached using TrypLE™ Express and counted using cell counter. In a 384-well plate cells were seeded at a density of 20,000 cells/well in 20 μL/well planting medium (DMEM medium supplements with 5% FBS, 100 U/mL penicillin-streptomycin and 20 mM HEPES), and incubated overnight at 37° C. with 5% (v/v) CO2. On the day of experiments, the dye solution, prepared following the manufacture's instruction of the Screen Quest™ Fluo-8 No Wash Calcium Assay Kit, was added to each well (20 μL/well) of the cell plate. The cell plate was incubated at 25° C. for 1 hour. Test compounds in different doses were transferred to the cell plate by FLIPR and the plate was kept in the dark at 25° C. for 30 minutes. The agonist solution, 0.2 μM of deoxycholic acid-3-phosphoric acid in assay buffer, was added to each well of the plate. The plate was read for 160 sec with 1 sec interval to obtain data of antagonist mode in FLIPR. […] Those skilled in the art appreciate that IC50 of various compounds can be assessed in accordance with the present disclosure.

T1 sequence (Q96LA9 whole entry): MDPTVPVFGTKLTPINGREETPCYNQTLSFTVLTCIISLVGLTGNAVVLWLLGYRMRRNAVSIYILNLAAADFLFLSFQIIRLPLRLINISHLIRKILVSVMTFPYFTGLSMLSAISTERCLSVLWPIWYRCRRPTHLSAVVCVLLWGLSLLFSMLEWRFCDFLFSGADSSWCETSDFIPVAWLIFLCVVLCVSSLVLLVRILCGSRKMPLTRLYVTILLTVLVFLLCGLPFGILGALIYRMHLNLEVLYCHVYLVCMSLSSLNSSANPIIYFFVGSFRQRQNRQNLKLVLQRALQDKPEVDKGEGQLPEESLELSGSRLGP

Turning to `O=C(O)c1cccc2c1ccn2Cc1cccc(C(F)(F)F)c1Cl` [Compound 12], the inhibition (commonly the drop in the measured response relative to a control, in per cent) at 2 µM is 101% and the IC50 (commonly the concentration needed to halve the response being measured) is under 500 nM. With `O=C(O)c1cc(F)cc2c1ccn2Cc1cccc(C(F)(F)F)c1Cl` [Compound 28], the inhibition at 0.5 µM came to 86% and the IC50 is under 500 nM.

In the case of `O=C(O)c1cccc2c1ncn2Cc1ccc(C(F)(F)F)cc1Cl` [Compound 26], the inhibition at 2 µM came out at 49%. Still for that read-out and setting: with `O=C(O)c1cccc2c1cnn2Cc1ccc(C(F)(F)F)cc1Cl` [Compound 27] the figure was 72%. With `NC(=O)c1c(F)ccc2c1ccn2Cc1cccc(C(F)(F)F)c1Cl` [Compound 55], the inhibition at 0.5 µM is 36%. `Cc1cc2c(C(=O)O)cccc2n1Cc1ccc(C(F)(F)F)cc1Cl` [Compound 21]: the inhibition at 2 µM was determined as 52%. Consider `Fc1cc(-c2nnn[nH]2)c2ccn(Cc3cccc(C(F)(F)F)c3Cl)c2c1` [Compound 50], for which the inhibition at 0.5 µM is -11.2%.

Take `Fc1cc(C(F)(F)F)ccc1Cn1ccc2c(-c3nnn[nH]3)cccc21` [Compound 43]: the inhibition at 2 µM turned out to be 96% and the IC50 is under 500 nM.

For the molecule `O=C(O)c1cccc2c1ccn2Cc1c(Cl)cccc1Cl` [Compound 32], the inhibition at 2 µM is -13%. With `O=C(O)c1cccc2c1ccn2Cc1ccc(OC(F)(F)F)c(Cl)c1` [Compound 8], the inhibition at 0.5 µM amounted to 64% and the IC50 is under 500 nM. As for `NC(=O)c1cccc2c1ccn2Cc1cccc(C(F)(F)F)c1Cl` [Compound 53], the inhibition at 0.5 µM is -7.6%. For `O=C(O)c1cccc2c1ccn2CCc1cc(C(F)(F)F)ccc1Cl` [Compound 37], the inhibition at 2 µM amounted to 5.5%. On to `O=C(O)c1ccc(Cl)c2c1ccn2Cc1cccc(C(F)(F)F)c1Cl` [Compound 40], for which the inhibition at 0.5 µM turned out to be 4.9%. As for `O=C(O)c1cccc2c1ccn2Cc1cc(Cl)cc(C(F)(F)F)c1` [Compound 23], the inhibition at 2 µM was 29%. On the same count and under the same terms, with `Cc1cn(Cc2cc(C(F)(F)F)ccc2Cl)c2cccc(C(=O)O)c12` [Compound 17] the figure was 3.6%. Take `Cc1cn(Cc2ccc(C(F)(F)F)cc2Cl)c2cccc(C(=O)O)c12` [Compound 20]: the inhibition at 2 µM was 97% and the IC50 is 500 to 5000 nM. Regarding `O=C(O)c1cccc2c1ccn2Cc1ccc(OC(F)(F)F)cc1` [Compound 7], the inhibition at 0.5 µM is 20%.

For `O=C(O)c1cccc2c1cnn2Cc1cc(C(F)(F)F)ccc1Cl` [Compound 34], the inhibition at 2 µM is -2.4%.

As for `FC(F)(F)c1ccc(Cn2ccc3c(-c4nnn[nH]4)cccc32)cc1Cl` [Compound 46], the inhibition at 2 µM stood at 99.9% and the 50% inhibitory concentration (IC50) is under 500 nM. Take `O=C(O)c1cccc2c1CCN2Cc1ccc(C(F)(F)F)cc1Cl` [Compound 6]: the inhibition at 2 µM was 18%.

Consider `FC(F)(F)c1ccc(Cn2ccc3c(-c4nnn[nH]4)cccc32)c(Cl)c1` [Compound 42], for which the inhibition at 2 µM was determined as 100% and the half-inhibitory concentration (IC50) was under 500 nM. For `O=C(O)c1cc(Br)cc2c1ccn2Cc1cccc(C(F)(F)F)c1Cl` [Compound 30], the inhibition at 0.5 µM amounted to 97% and the IC50 was under 500 nM. `O=C(O)c1cccc2c1CCN2Cc1ccc(C(F)(F)F)cc1` [Compound 5]: the inhibition at 2 µM stood at 40% and the IC50 was over 5000 nM. Consider `NC(=O)c1cccc2c1ccn2Cc1ccc(C(F)(F)F)c(Cl)c1` [Compound 54], for which the inhibition at 0.5 µM stood at 11%. Turning to `Cc1cc2c(C(=O)O)cccc2n1Cc1cc(C(F)(F)F)ccc1Cl` [Compound 18], the inhibition at 2 µM was 7.2%. `O=C(O)c1c(F)ccc2c1ccn2Cc1ccc(C(F)(F)F)c(Cl)c1` [Compound 1]: the inhibition at 0.5 µM was 78% and the IC50 was under 500 nM. Consider `O=C(O)c1cccc2c1ccn2Cc1ccccc1Cl` [Compound 36], for which the inhibition at 2 µM was 0.4%. `O=C(O)c1c(F)ccc2c1ccn2Cc1cccc(C(F)(F)F)c1Cl` [Compound 2]: the inhibition at 0.5 µM worked out at 98% and the concentration for half-maximal inhibition (IC50) is under 500 nM.

For `O=C(O)c1cccc2c1ccn2Cc1ccc(C(F)(F)F)cc1F` [Compound 16], the inhibition at 2 µM was 94% and the concentration for half-maximal inhibition (IC50) was under 500 nM. With `FC(F)(F)c1cccc(Cn2ccc3c(-c4nnn[nH]4)ncnc32)c1Cl` [Compound 47], the inhibition at 0.5 µM is 13%. Consider `O=C(O)c1cccc2c1ccn2Cc1cc(C(F)(F)F)ccc1Cl` [Compound 35], for which the inhibition at 2 µM is 5.1%. As for `O=C(O)c1cccc2c1ccn2Cc1cccc(C(F)(F)F)c1` [Compound 9], the inhibition at 0.5 µM was -1.6%. Same read-out and setting: with `O=C(O)c1ncnc2c1ccn2Cc1ccc(C(F)(F)F)c(Cl)c1` [Compound 14] the figure was 12%. `O=C(O)c1cccc2c1ccn2Cc1ccc(C(F)(F)F)c(Cl)c1` [Compound 19, 1-(3-chloro-4-(trifluoromethyl)benzyl)-1H-indole-4-carboxylic acid]: the inhibition at 2 µM worked out at 99.7% and the IC50 was under 500 nM. Taken in the same sequence, the figures for `O=C(O)c1cccc2c1ccn2Cc1ccc(C(F)(F)F)cc1Br` [Compound 33] were 98% and 500 to 5000 nM. In the case of `O=C(O)c1cccc2c1ccn2Cc1ccc(C(F)(F)F)cc1Cl` [Compound 4], the inhibition at 2 µM was 91% and the IC50 is under 500 nM. In the case of `O=C(O)c1cccc2c1ccn2Cc1cccc(C(F)(F)F)c1F` [Compound 24], the inhibition at 0.5 µM is 20%. With `O=C(O)c1cc(Cl)cc2c1ccn2Cc1cccc(C(F)(F)F)c1Cl` [Compound 29], the inhibition at 0.5 µM stood at 76% and the half-maximal inhibitory concentration (IC50) was under 500 nM. On to `O=C(O)c1cccc2c1ccn2Cc1c(Cl)cc(C(F)(F)F)cc1Cl` [Compound 31], for which the inhibition at 2 µM is -6.2%. On the same count and under the same terms, with `FC(F)(F)c1ccc(Cn2ccc3c(-c4nnn[nH]4)cccc32)cc1` [Compound 41] the figure was 81%; with `O=C(O)c1cccc2c1ccn2Cc1c(Cl)cccc1C(F)(F)F` [Compound 22], 2.4%. Turning to `O=C(O)c1cccc2c1ccn2Cc1ccccc1C(F)(F)F` [Compound 11], the inhibition at 0.5 µM was -1.2%.

In the case of `O=C(O)c1cccc2c1ccn2Cc1ccc(C(F)(F)F)cc1` [Compound 3], the inhibition at 2 µM is 34% and the IC50 lay within 500 to 5000 nM. Regarding `FC(F)(F)c1ccc(Cn2ccc3c(-c4nnn[nH]4)ncnc32)cc1Cl` [Compound 48], the inhibition at 0.5 µM was determined as 4.3%. Still for that read-out and setting: with `O=C(O)c1ncnc2c1ccn2Cc1cccc(C(F)(F)F)c1Cl` [Compound 13] the figure was 27%. In the case of `FC(F)(F)c1cccc(Cn2ccc3c(-c4nnn[nH]4)cccc32)c1Cl` [Compound 44], the inhibition at 2 µM was 65% and the IC50 is 500 to 5000 nM. Taken in the same sequence, the figures for `FC(F)(F)c1ccc(Cn2ccc3c(-c4nnn[nH]4)cccc32)c(Br)c1` [Compound 45] were 100% and under 500 nM. For the molecule `O=C(O)c1cc(C2CC2)cc2c1ccn2Cc1cccc(C(F)(F)F)c1Cl` [Compound 38], the inhibition at 0.5 µM was found to be 44%. Take `O=C(O)c1cccc2c1ccn2CCc1ccc(C(F)(F)F)cc1Cl` [Compound 25]: the IC50 is over 5000 nM. For `Fc1ccc2c(ccn2Cc2ccc(C(F)(F)F)c(Cl)c2)c1-c1nnn[nH]1` [Compound 51], the inhibition at 0.5 µM was determined as 99.9% and the IC50 is under 500 nM. With `O=C(O)c1cc(-c2ccccc2)cc2c1ccn2Cc1cccc(C(F)(F)F)c1Cl` [Compound 39], the inhibition at 0.5 µM is 1.6%. Take `O=C(O)c1cccc2c1ccn2Cc1ccc(Cl)c(C(F)(F)F)c1` [Compound 10]: the inhibition at 0.5 µM was 90% and the IC50 was under 500 nM. Take `CC(c1ccc(C(F)(F)F)cc1)n1ccc2c(C(=O)O)cccc21` (centres unmarked) [Compound 15]: the inhibition at 0.5 µM was determined as 5.3%.
